According to the kinase profiling compilation of Christmann-Franck et al. (2016):

Columns and labels:
Assay in all cases: KINOMEscan competition binding
Conditions in all cases: compound 10.0 µM
[1] = target: EPHA4 (human) (UniProt P54764)
[2] = target: TEC (human) (UniProt P42680)
[3] = target: MYO3B (human) (UniProt Q8WXR4)
[4] = target: FGFR1 (human) (UniProt P11362)
[5] = target: PAK2 (human) (UniProt Q13177)
[6] = target: DCLK3 (human) (UniProt Q9C098)
[7] = target: NLK (human) (UniProt Q9UBE8)
[8] = target: CHEK1 (human) (UniProt O14757)
[9] = target: PAK7 (human) (UniProt Q9P286)
[10] = target: RIOK1 (human) (UniProt Q9BRS2)
[11] = target: AURKC (human) (UniProt Q9UQB9)
[12] = target: LCK (human) (UniProt P06239)
[13] = target: PLK4 (human) (UniProt O00444)
[14] = target: EPHB2 (human) (UniProt P29323)
[15] = target: EPHB4 (human) (UniProt P54760)
[16] = target: ACVR2B (human) (UniProt Q13705)
[17] = target: BLK (human) (UniProt P51451)
[18] = target: ADCK4 (human) (UniProt Q96D53)
[19] = target: MAPK1 (human) (UniProt P28482)
[20] = target: CSNK1D (human) (UniProt P48730)
[21] = target: RIPK1 (human) (UniProt Q13546)
[22] = system: ABL1 (human), P00519 [F317I]
[23] = target: STK16 (human) (UniProt O75716)
[24] = target: ACVRL1 (human) (UniProt P37023)
[25] = target: MAST1 (human) (UniProt Q9Y2H9)
[26] = system: PIK3CA (human), P42336 [M1043I]
[27] = target: CSNK2A2 (human) (UniProt P19784)
[28] = target: CDK8 (human) (UniProt P49336)
[29] = target: MAP4K5 (human) (UniProt Q9Y4K4)
[30] = target: PTK2B (human) (UniProt Q14289)
[31] = target: CSNK1G3 (human) (UniProt Q9Y6M4)
[32] = target: STK33 (human) (UniProt Q9BYT3)
[33] = system: KIT (human), P10721 [D816H]
[34] = target: CDK4 CCND3 (human) (UniProt P11802+P30281)
[35] = system: CPK1 (P.falciparum)

RIOK1 (human), sequence (Q9BRS2 whole entry, looked up): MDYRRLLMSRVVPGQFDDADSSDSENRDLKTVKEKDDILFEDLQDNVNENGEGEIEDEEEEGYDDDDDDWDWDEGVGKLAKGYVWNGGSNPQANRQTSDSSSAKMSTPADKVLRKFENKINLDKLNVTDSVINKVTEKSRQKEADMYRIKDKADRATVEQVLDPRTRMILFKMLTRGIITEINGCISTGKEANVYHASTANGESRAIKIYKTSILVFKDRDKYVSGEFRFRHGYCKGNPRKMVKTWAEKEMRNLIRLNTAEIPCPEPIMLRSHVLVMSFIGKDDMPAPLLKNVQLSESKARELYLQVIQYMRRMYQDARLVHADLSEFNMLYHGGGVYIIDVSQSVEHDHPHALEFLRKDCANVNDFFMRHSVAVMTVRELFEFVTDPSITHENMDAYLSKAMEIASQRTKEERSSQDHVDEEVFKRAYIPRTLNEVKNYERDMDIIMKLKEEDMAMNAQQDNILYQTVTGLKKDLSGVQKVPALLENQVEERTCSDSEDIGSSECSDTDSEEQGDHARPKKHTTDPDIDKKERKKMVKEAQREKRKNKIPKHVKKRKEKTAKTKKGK
ADCK4 (human), sequence (Q96D53 whole entry, looked up): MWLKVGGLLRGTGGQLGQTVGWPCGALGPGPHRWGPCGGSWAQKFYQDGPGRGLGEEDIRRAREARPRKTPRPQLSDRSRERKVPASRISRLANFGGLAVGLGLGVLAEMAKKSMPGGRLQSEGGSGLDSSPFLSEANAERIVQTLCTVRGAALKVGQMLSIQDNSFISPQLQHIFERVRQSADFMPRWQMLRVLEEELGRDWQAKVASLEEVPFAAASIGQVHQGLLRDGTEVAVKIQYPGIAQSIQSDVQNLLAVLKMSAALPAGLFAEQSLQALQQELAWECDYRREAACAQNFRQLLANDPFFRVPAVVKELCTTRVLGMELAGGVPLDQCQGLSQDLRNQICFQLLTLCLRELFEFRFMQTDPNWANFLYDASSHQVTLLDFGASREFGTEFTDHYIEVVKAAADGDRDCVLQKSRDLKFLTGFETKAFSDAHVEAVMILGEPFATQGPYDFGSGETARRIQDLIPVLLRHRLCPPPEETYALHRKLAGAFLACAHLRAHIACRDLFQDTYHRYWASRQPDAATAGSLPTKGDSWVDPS
EPHB2 (human), sequence (P29323 whole entry, looked up): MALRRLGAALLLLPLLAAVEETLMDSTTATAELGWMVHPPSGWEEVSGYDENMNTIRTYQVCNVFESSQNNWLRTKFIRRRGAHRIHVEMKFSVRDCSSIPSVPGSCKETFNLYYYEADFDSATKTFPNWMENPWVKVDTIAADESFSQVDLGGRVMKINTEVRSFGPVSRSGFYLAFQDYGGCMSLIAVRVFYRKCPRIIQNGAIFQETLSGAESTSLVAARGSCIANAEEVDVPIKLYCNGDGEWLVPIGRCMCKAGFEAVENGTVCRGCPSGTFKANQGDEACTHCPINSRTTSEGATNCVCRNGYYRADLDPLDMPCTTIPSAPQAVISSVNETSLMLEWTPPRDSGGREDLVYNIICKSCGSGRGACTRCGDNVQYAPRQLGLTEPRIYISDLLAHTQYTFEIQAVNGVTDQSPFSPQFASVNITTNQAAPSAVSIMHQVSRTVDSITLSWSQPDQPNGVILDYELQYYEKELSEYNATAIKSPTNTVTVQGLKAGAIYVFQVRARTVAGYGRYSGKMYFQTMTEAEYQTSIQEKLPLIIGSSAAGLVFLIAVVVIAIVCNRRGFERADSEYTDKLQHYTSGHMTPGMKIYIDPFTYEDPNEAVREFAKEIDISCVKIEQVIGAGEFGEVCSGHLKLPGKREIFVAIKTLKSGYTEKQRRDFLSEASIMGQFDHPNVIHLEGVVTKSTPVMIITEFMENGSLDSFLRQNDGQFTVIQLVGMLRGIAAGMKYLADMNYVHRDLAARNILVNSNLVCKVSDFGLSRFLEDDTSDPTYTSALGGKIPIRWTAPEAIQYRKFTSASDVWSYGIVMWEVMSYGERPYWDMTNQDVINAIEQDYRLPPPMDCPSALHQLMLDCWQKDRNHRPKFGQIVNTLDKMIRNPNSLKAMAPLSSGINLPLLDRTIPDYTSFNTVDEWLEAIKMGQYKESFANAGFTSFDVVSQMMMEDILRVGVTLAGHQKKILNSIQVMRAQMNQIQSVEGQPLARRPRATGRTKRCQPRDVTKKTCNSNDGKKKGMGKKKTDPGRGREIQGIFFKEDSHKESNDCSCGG
LCK (human), sequence (P06239 whole entry, looked up): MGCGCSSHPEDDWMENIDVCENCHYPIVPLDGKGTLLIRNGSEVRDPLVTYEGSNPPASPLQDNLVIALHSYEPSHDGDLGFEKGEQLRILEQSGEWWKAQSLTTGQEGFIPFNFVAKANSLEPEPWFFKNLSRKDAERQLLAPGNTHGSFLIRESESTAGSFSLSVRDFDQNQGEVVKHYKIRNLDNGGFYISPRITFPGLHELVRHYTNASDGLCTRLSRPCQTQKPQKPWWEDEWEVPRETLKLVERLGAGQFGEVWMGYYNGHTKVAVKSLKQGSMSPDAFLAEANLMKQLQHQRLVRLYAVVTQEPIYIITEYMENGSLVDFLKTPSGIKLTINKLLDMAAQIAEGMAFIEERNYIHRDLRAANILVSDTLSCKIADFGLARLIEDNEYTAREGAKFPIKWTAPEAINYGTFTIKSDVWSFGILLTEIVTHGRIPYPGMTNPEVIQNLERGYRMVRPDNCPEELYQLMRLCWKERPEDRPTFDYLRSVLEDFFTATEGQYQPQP
TEC (human), sequence (P42680 whole entry, looked up): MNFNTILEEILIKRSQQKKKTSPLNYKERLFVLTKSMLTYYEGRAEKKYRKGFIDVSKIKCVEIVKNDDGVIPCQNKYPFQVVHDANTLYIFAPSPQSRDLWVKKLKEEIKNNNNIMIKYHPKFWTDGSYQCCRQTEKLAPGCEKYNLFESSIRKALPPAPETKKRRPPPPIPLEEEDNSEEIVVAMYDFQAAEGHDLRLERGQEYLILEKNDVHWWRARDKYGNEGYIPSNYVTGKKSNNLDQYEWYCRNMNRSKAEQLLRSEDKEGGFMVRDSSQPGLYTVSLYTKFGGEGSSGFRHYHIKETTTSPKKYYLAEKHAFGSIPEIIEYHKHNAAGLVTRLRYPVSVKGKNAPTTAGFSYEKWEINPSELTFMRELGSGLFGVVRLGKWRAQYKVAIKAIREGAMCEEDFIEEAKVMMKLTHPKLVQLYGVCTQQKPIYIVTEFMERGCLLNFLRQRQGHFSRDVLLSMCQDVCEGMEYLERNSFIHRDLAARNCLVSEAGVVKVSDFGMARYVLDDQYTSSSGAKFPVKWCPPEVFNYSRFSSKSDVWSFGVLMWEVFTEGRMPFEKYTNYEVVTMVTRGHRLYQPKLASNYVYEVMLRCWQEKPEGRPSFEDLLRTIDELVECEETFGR
AURKC (human), sequence (Q9UQB9 whole entry, looked up): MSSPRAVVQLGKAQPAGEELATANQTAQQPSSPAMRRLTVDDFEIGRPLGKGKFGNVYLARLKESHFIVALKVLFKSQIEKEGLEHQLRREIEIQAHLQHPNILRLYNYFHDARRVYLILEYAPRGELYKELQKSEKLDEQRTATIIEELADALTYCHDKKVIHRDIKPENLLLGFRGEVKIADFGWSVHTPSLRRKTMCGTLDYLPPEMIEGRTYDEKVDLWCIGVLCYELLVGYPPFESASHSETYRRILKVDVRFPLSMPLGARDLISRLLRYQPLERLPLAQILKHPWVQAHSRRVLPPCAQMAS
PAK7 (human), sequence (Q9P286 whole entry, looked up): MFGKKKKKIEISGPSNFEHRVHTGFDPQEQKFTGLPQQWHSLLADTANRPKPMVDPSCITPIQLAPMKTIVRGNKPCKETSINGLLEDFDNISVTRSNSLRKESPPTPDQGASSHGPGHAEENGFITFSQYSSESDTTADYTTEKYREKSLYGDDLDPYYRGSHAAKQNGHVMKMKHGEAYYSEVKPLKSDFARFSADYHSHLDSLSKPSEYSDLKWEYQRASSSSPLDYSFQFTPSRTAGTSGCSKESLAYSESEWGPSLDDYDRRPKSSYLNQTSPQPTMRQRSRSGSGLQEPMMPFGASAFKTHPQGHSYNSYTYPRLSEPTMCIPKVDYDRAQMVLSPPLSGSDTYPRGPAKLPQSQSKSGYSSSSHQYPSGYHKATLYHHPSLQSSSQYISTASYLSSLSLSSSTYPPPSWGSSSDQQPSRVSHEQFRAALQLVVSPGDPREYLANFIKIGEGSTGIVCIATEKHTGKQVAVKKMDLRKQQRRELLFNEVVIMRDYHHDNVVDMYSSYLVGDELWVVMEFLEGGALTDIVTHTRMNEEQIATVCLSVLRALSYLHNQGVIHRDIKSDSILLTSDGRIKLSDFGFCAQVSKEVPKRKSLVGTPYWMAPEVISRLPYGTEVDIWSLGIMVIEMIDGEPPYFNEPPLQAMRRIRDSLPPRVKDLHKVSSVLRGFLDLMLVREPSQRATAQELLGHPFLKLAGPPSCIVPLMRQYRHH
PAK2 (human), sequence (Q13177 whole entry, looked up): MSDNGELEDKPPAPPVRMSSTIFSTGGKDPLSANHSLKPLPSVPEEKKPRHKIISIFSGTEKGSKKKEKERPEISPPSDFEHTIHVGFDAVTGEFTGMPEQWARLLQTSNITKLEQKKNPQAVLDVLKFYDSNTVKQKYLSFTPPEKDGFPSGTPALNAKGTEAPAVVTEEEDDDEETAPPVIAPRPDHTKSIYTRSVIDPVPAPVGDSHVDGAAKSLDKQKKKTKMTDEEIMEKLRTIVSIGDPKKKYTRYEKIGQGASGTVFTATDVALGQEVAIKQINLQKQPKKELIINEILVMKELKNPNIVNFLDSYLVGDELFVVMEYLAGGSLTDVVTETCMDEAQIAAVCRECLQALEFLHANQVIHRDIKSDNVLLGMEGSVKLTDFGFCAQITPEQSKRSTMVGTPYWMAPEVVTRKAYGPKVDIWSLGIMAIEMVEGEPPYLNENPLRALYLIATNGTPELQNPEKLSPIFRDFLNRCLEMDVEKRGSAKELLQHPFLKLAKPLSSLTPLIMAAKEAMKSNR

Row | kinase still bound, per cent of control [1] [%] | kinase still bound, per cent of control [2] [%] | kinase still bound, per cent of control [3] [%] | kinase still bound, per cent of control [4] [%] | kinase still bound, per cent of control [5] [%] | kinase still bound, per cent of control [6] [%] | kinase still bound, per cent of control [8] [%] | kinase still bound, per cent of control [9] [%] | kinase still bound, per cent of control [10] [%] | kinase still bound, per cent of control [11] [%] | kinase still bound, per cent of control [13] [%] | kinase still bound, per cent of control [15] [%] | kinase still bound, per cent of control [16] [%] | kinase still bound, per cent of control [18] [%] | kinase still bound, per cent of control [19] [%] | kinase still bound, per cent of control [20] [%] | kinase still bound, per cent of control [21] [%] | kinase still bound, per cent of control [23] [%] | kinase still bound, per cent of control [27] [%] | kinase still bound, per cent of control [30] [%] | SMILES | further results
1 | 4 | 100 | 100 | 100 | 100 | 100 | 100 | 100 | 100 | 100 | 100 | 15 | 100 | 100 | 100 | 100 | 100 | 100 | 100 | 100 | Cc1cn(-c2cc(C(=O)Nc3ccc(C)c(NC(=O)c4ccno4)c3)cc(C(F)(F)F)c2)cn1 | kinase still bound, per cent of control [7]: 100%; kinase still bound, per cent of control [12]: 4%; kinase still bound, per cent of control [14]: 9%; kinase still bound, per cent of control [17]: 15%; kinase still bound, per cent of control [22]: 0.95%; kinase still bound, per cent of control [24]: 100%; kinase still bound, per cent of control [25]: 100%; kinase still bound, per cent of control [26]: 100%; kinase still bound, per cent of control [28]: 100%; kinase still bound, per cent of control [29]: 100%; kinase still bound, per cent of control [31]: 100%; kinase still bound, per cent of control [32]: 100%
2 | 100 | 25 | 100 | 100 | 100 | 4.2 | 100 | 100 | 100 | 100 | 100 | 100 | 100 | 100 | 100 | 100 | 100 | 100 | 100 | 100 | COc1cc(C)c(Sc2cnc(NC(=O)c3ccc(CNC(C)C(C)C)cc3)s2)cc1C(=O)N1CCN(C(C)=O)CC1 (configuration not stated) | kinase still bound, per cent of control [7]: 100%; kinase still bound, per cent of control [12]: 6.2%; kinase still bound, per cent of control [14]: 100%; kinase still bound, per cent of control [17]: 100%; kinase still bound, per cent of control [22]: 100%; kinase still bound, per cent of control [24]: 100%; kinase still bound, per cent of control [28]: 100%; kinase still bound, per cent of control [29]: 100%; kinase still bound, per cent of control [31]: 100%; kinase still bound, per cent of control [32]: 7%
3 | 100 | 100 | 24 | 100 | 100 | 100 | 100 | 100 | 100 | 100 | 2.8 | 100 | 100 | 0 | 26 | 100 | 100 | 100 | 100 | 0.15 | COc1cc(N2CCC(C(N)=O)CC2)ccc1Nc1nc(N)c(Cl)c(Nc2ccccc2S(=O)(=O)C(C)C)n1 | kinase still bound, per cent of control [7]: 100%; kinase still bound, per cent of control [12]: 14%; kinase still bound, per cent of control [14]: 100%; kinase still bound, per cent of control [17]: 22%; kinase still bound, per cent of control [22]: 4.8%; kinase still bound, per cent of control [24]: 100%; kinase still bound, per cent of control [28]: 100%; kinase still bound, per cent of control [29]: 100%; kinase still bound, per cent of control [31]: 100%; kinase still bound, per cent of control [32]: 4.5%
4 | 2.4 | 0.2 | 100 | 0.6 | 100 | 100 | 100 | 100 | 100 | 100 | 100 | 0.3 | 100 | 100 | 100 | 100 | 100 | 100 | 100 | 0.9 | COc1ccc(N(C(=O)Oc2cc(C(=O)Nc3cccc(C(F)(F)F)c3)ccc2C)c2ccnc(Nc3ccc(N4CCN(C)CC4)cc3)n2)c(OC)c1 | kinase still bound, per cent of control [7]: 30%; kinase still bound, per cent of control [12]: 0.4%; kinase still bound, per cent of control [14]: 0.9%; kinase still bound, per cent of control [17]: 0.45%; kinase still bound, per cent of control [24]: 100%; kinase still bound, per cent of control [28]: 100%; kinase still bound, per cent of control [29]: 1.6%; kinase still bound, per cent of control [31]: 100%; kinase still bound, per cent of control [32]: 100%

Row | SMILES | kinase still bound, per cent of control [1] [%] | kinase still bound, per cent of control [2] [%] | kinase still bound, per cent of control [3] [%] | kinase still bound, per cent of control [4] [%] | kinase still bound, per cent of control [5] [%] | kinase still bound, per cent of control [6] [%] | kinase still bound, per cent of control [8] [%] | kinase still bound, per cent of control [9] [%] | kinase still bound, per cent of control [10] [%] | kinase still bound, per cent of control [11] [%] | kinase still bound, per cent of control [13] [%] | kinase still bound, per cent of control [15] [%] | kinase still bound, per cent of control [16] [%] | kinase still bound, per cent of control [18] [%] | kinase still bound, per cent of control [19] [%] | kinase still bound, per cent of control [20] [%] | kinase still bound, per cent of control [21] [%] | kinase still bound, per cent of control [23] [%] | kinase still bound, per cent of control [27] [%] | kinase still bound, per cent of control [30] [%] | further results
5 | CC(=O)c1c(C)c2cnc(Nc3ccc(N4CCNCC4)cn3)nc2n(C2CCCC2)c1=O | 94 | 98 | 100 | 66 | 93 | 9.6 | 20 | 35 | 38 | 96 | 3.2 | 100 | 100 | 53 | 73 | 22 | 65 | 3.4 | 0.65 | 31 | kinase still bound, per cent of control [33]: 56%; kinase still bound, per cent of control [34]: 2%; kinase still bound, per cent of control [25]: 5%; kinase still bound, per cent of control [26]: 68%; kinase still bound, per cent of control [35]: 46%; kinase still bound, per cent of control [32]: 24%
